Data published in patent US20020009527A1, “CONTAMINATION-RESISTANT ANIMAL FEEDSTUFFS” (BOBBY J BLAND, priority 1992, published 2002).
Where two headings read alike, the source gives them in different places.

Columns and labels:
Salmonella typhimurium = conditions: hydraulic nozzle; 1.32 lb/ton; inoculated after 7 days storage; 24 h incubation
Procedure: Poultry starter mash was distributed in one gallon glass jars (2000 g/jar). The mash was autoclaved at 121° C. and 15 psi for one hour on two consecutive days. The sterile poultry starter mash was mixed thoroughly and subsampled using a Humboldt sample splitter to obtain seven 500 g subsamples. […] After treatment the samples were stored in paper bags at 24° C. prior to the recontamination.
An isolate of Salmonella typhimurium was obtained from poultry feed and was serotyped by the United States Department of Agriculture (USDA) National Veterinary Services Laboratory in Ames, Iowa. The isolate was used to inoculate milk dilution bottles containing 90 ml of nutrient broth. The inoculated bottles were incubated at 35° C. for 18-24 hours. After incubation, the contents of several milk dilution were combined in a sterile 1000 ml Erlenmeyer flask and mixed. The level of Salmonella typhimurium was determined by serially diluting the nutrient broth with buffered phosphate solution and the dilutions plated on modified lysine iron agar. The inoculated plates were incubated at 35° C. for 18-24 hours. After incubation, the number of Salmonella typhimurium colonies was counted.
After 7 days of storage, the subsamples of poultry starter mash (500 g) were individually inoculated with 20 ml of the nutrient broth culture of S. typhimurium (10^3 colonies/gram). […]

Escherichia coli [1] = system: Escherichia coli
Procedure: Poultry starter mash (8000 g) was distributed in one gallon glass jars (2000 g/jar). The mash was autoclaved at 121° C. and 15 psi for one hour on two consecutive days. The sterile poultry starter mash was mixed thoroughly and subsampled using a Humboldt sample splitter to obtain seven 500 g subsamples. […] After treatment the samples were stored at 24° C. for 7 days prior to the recontamination.
The identity of an isolate of Escherichia coli obtained from poultry feed was confirmed by biochemical and serological tests. The isolate was used to inoculate milk dilution bottles containing 90 ml of nutrient both. The inoculated bottles were incubated at 35° C. for 18-24 hours. After incubation the contents of several milk dilution bottles were combined in a sterile 1000 ml Erlenmeyer flask, mixed and the level of Escherichia coli determined by serially diluting the nutrient broth with buffered phosphate. The dilutions were plated onto MacConkey's agar. The inoculated plates were incubated at 35° C. for 18-24 hours. After incubation, the number of E. coli colonies was counted.
After seven days of storage, the subsamples (500 g) were individually inoculated with 20 ml of a nutrient broth culture of E. coli (10^6 colonies/ml). The inoculated feed was transferred to sterile one quart containers with screw cap lids. After 24 hours incubation at 25° C., the treatment samples were split to obtain log subsamples. Each subsample was placed into a milk dilution bottle containing 90 ml of buffered phosphate. The bottles were placed on a wrist action shaker and agitated for 30 minutes. The samples were serially diluted with buffered phosphate and the dilutions plated onto MacConkey's agar (MA) or Hektoen Enteric agar (HEA). The inoculated plates were incubated at 35° C. for 18-24 hours. After incubation, the number of E. coli colonies was counted. […] In this procedure a 25 g subsample was incubated in 225 ml lactose broth for 18-20 hours at 35° C. The inoculated broth was streaked on plates of MacConkey's agar and incubated for 24 hours at 35° C.
The procedure of Example 8 was repeated using an inoculum containing 10^4 colonies/ml of E. coli.

[2] = 1.0 pound formaldehyde (dry wt.) per ton of feed
Procedure: Chickens (1,400,000 broilers) were raised with steam pelletized formaldehyde-treated feed and 250,000 broilers were raised with conventional steam pelletized feed. This test was conducted from the time the chicks were a day old until market weight which is 7 to 8 weeks.

Escherichia coli [3] = conditions: fine mist (43 microns); all quantity levels
Procedure: A sterilized poultry starter mash (500 grams/treatment quantity level) was treated with 37 wt. % formaldehyde solution in quantities of 0.66, 1.33 and 2.00 pounds dry weight of formaldehyde per ton. One set of samples was treated with a coarse spray (270 microns) at 1.8 gal/hr and another was treated with fine mist (43 microns) at 25.5 gal/hr. Each sample of 500 grams was challenged with 20 ml of a liquid inoculum of Escherichia coli (10^6 colonies/ml) one week after treatment.

E. coli = system: E. coli
Procedure: The term “resistant to contamination by pathogenic bacteria” means that a challenge with 1000 colonies per gram of feed results in death of substantially all the bacteria within 48 to 72 hours. […] Sampling procedures for obtaining representative samples of feed are described in Example 16, so that the coefficient of variation can be readily determined.

C=O [Formaldehyde, formaldehyde]
S. typhimurium colonies per gram of feed (Salmonella typhimurium): 2.94 × 10^2 COLONIES/GRAM | E. coli colonies/g (Escherichia coli [1]; atomizing nozzle, 0.66 lb/ton, inoculum 10^6 colonies/ml (Example 8)): 1.11 × 10^2 COLONIES/GRAM | E. coli colonies/g (Escherichia coli [1]; hydraulic nozzle, 0.66 lb/ton, inoculum 10^4 colonies/ml (Example 9)): 8.78 × 10^3 COLONIES/GRAM | E. coli colonies/g (Escherichia coli [1]; hydraulic nozzle, 0.66 lb/ton, inoculum 10^6 colonies/ml (Example 8)): 2.74 × 10^5 COLONIES/GRAM | E. coli colonies/g (Escherichia coli [1]; hydraulic nozzle, 1.32 lb/ton, inoculum 10^4 colonies/ml (Example 9)): 4.33 × 10^3 COLONIES/GRAM | E. coli colonies/g (Escherichia coli [1]; hydraulic nozzle, 1.32 lb/ton, inoculum 10^6 colonies/ml (Example 8)): 3.67 × 10^3 COLONIES/GRAM | E. coli colonies/g (Escherichia coli [1]; hydraulic nozzle, 2.00 lb/ton, inoculum 10^4 colonies/ml (Example 9)): 3.33 × 10^2 COLONIES/GRAM | E. coli colonies/g (Escherichia coli [1]; hydraulic nozzle, 2.00 lb/ton, inoculum 10^6 colonies/ml (Example 8)): 1.04 × 10^2 COLONIES/GRAM | MORTALITY ([2]; broilers, day old to market weight (7 to 8 weeks)): 6% | FEED CONVERSION ([2]; pounds of feed required to produce one pound live weight gain): 2.25 | further time free of detectable E. coli (test then discontinued) (Escherichia coli [3]): 60 days | time after inoculation until free of detectable E. coli (Escherichia coli [3]): ≤ 48 h | resistance to contamination (time) (E. coli; 2 lbs. dry wt. of formaldehyde/ton, 2.0% CV): about 60 days | resistance to contamination (time) (E. coli; 4 lbs. dry wt. of formaldehyde per ton of finished feed, 7% CV): about 30 days
